Assay results from US20100317647A1 (priority 2009, published 2010).

Molecular target: human Cat S (Homo sapiens, UniProt P25774)
Experiment: Cathepsin enzyme inhibition assay (fluorogenic peptide substrate cleavage)
Format: biochemical
Conditions: human Cat S 1 nM; substrate Z-Val-Val-Arg-AMC 20 μM; pH 6.5; fluorescence over 20 minutes
Method in brief: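 Fluorogenic cleavage of Z-Val-Val-Arg-AMC (20 μM) by 1 nM enzyme in 100 mM potassium phosphate pH 6.5, 5 mM EDTA, 5 mM DTT, 0.001% Triton X-100. Reaction started with substrate; fluorescence (ex 360/em 465 nm) followed over 20 minutes. IC50 by standard methods.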

Sequence of human Cat S (P25774 115-331): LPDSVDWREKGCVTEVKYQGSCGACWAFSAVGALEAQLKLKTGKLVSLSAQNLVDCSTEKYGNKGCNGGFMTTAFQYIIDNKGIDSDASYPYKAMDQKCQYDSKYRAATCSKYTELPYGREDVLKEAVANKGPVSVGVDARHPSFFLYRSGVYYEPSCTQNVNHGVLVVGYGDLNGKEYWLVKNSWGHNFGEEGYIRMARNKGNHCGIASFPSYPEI

IC50 [nM] | Structure (SMILES)
61.5 | N#CC1(NC(=O)[C@@H]2C[C@@H](S(=O)(=O)c3ccc(F)cc3Cl)C[C@H]2CF)CC1 [Example 157, (1R,2R,4R)-4-(2-Chloro-4-fluoro-benzenesulfonyl)-2-fluoromethyl-cyclopentanecarboxylic acid (1-cyano-cyclopropyl)-amide]
0.63 | CN1CCN(c2ccc(S(=O)(=O)[C@@H]3C[C@@H](C(=O)NC4(C#N)CC4)[C@H](C(=O)N4CC(F)(F)C4)C3)c(Cl)c2)CC1 [Example 158, (1R,2R,4R)-4-[2-Chloro-4-(4-methyl-piperazin-1-yl)-benzenesulfonyl]-2-(3,3-difluoro-azetidine-1-carbonyl)-cyclopentanecarboxylic acid (1-cyano-cyclopropyl)-amide]
0.385 | N#CC1(NC(=O)[C@@H]2C[C@@H](S(=O)(=O)c3ccc(N4CCN(C5CC5)CC4)cc3Cl)C[C@H]2C(=O)N2CC(F)(F)C2)CC1 [Example 159, (1R,2R,4R)-4-[2-Chloro-4-(4-cyclopropyl-piperazin-1-yl)-benzenesulfonyl]-2-(3,3-difluoro-azetidine-1-carbonyl)-cyclopentanecarboxylic acid (1-cyano-cyclopropyl)-amide]
0.165 | CC(C)(C)N1CCN(c2ccc(S(=O)(=O)[C@@H]3C[C@@H](C(=O)NC4(C#N)CC4)[C@H](C(=O)N4CC(F)(F)C4)C3)c(Cl)c2)CC1 [Example 160, (1R,2R,4R)-4-[4-(4-tert-Butyl-piperazin-1-yl)-2-chloro-benzenesulfonyl]-2-(3,3-difluoro-azetidine-1-carbonyl)-cyclopentanecarboxylic acid (1-cyano-cyclopropyl)-amide]
14.7 | N#CC1(NC(=O)[C@@H]2C[C@@H](S(=O)(=O)c3ccc(F)cc3Cl)C[C@H]2COc2ccc(Cl)nc2)CC1 [Example 162, (1R,2R,4S)-4-(2-Chloro-4-fluoro-benzenesulfonyl)-2-(6-chloro-pyridin-3-yloxymethyl)-cyclopentanecarboxylic acid (1-cyano-cyclopropyl)-amide]
11.1 | N#CC1(NC(=O)[C@@H]2C[C@@H](S(=O)(=O)c3ccc(F)cc3Cl)C[C@H]2COc2ccncc2)CC1 [Example 163, (1R,2R,4S)-4-(2-Chloro-4-fluoro-benzenesulfonyl)-2-(pyridin-4-yloxymethyl)-cyclopentanecarboxylic acid (1-cyano-cyclopropyl)-amide]
3 | N#CC1(NC(=O)[C@@H]2C[C@@H](S(=O)(=O)c3ccc(F)cc3Cl)C[C@H]2COc2ccccc2)CC1 [Example 164, (1R,2R,4S)-4-(2-Chloro-4-fluoro-benzenesulfonyl)-2-phenoxymethyl-cyclopentanecarboxylic acid (1-cyano-cyclopropyl)-amide]
6.83 | N#CC1(NC(=O)[C@@H]2C[C@@H](S(=O)(=O)c3ccc(F)cc3Cl)C[C@H]2COc2cccnc2)CC1 [Example 165, (1R,2R,4S)-4-(2-Chloro-4-fluoro-benzenesulfonyl)-2-(pyridin-3-yloxymethyl)-cyclopentanecarboxylic acid (1-cyano-cyclopropyl)-amide]
0.6 | CC(=O)N1CCN(c2ccc(S(=O)(=O)[C@@H]3C[C@@H](C(=O)NC4(C#N)CC4)[C@H](C(=O)N4CC(F)(F)C4)C3)c(Cl)c2)CC1 [Example 166, (1R,2R,4R)-4-[4-(4-Acetyl-piperazin-1-yl)-2-chloro-benzenesulfonyl]-2-(3,3-difluoro-azetidine-1-carbonyl)-cyclopentanecarboxylic acid (1-cyano-cyclopropyl)-amide]
1.47 | N#CC1(NC(=O)[C@@H]2C[C@@H](S(=O)(=O)c3ccc(-n4cccn4)cc3Cl)C[C@H]2C(=O)N2CC(F)(F)C2)CC1 [Example 167, (1R,2R,4R)-4-(2-Chloro-4-pyrazol-1-yl-benzenesulfonyl)-2-(3,3-difluoro-azetidine-1-carbonyl)-cyclopentanecarboxylic acid (1-cyano-cyclopropyl)-amide]
1.27 | COCCOc1ccc(S(=O)(=O)[C@@H]2C[C@@H](C(=O)NC3(C#N)CC3)[C@H](C(=O)N3CC(F)(F)C3)C2)c(Cl)c1 [Example 168, (1R,2R,4R)-4-[2-Chloro-4-(2-methoxy-ethoxy)-benzenesulfonyl]-2-(3,3-difluoro-azetidine-1-carbonyl)-cyclopentanecarboxylic acid (1-cyano-cyclopropyl)-amide]
2.15 | N#CC1(NC(=O)[C@@H]2C[C@@H](S(=O)(=O)c3ccc(F)cc3Cl)C[C@H]2C(=O)N2CCC(F)(F)C2)CC1 [Example 186, (1R,2R,4R)-4-(2-Chloro-4-fluoro-benzenesulfonyl)-2-(3,3-difluoro-pyrrolidine-1-carbonyl)-cyclopentanecarboxylic acid (1-cyano-cyclopropyl)-amide]
1.07 | N#CC1(NC(=O)[C@@H]2C[C@@H](S(=O)(=O)c3ccc(Br)cc3Cl)C[C@H]2C(=O)N2CCC(F)(F)C2)CC1 [Example 187, (1R,2R,4R)-4-(4-Bromo-2-chloro-benzenesulfonyl)-2-(3,3-difluoro-pyrrolidine-1-carbonyl)-cyclopentanecarboxylic acid (1-cyano-cyclopropyl)-amide]
0.985 | N#CC1(NC(=O)[C@@H]2C[C@@H](S(=O)(=O)c3cccc(Br)c3)C[C@H]2C(=O)N2CCC(F)(F)C2)CC1 [Example 188, (1R,2R,4R)-4-(3-Bromo-benzenesulfonyl)-2-(3,3-difluoro-pyrrolidine-1-carbonyl)-cyclopentanecarboxylic acid (1-cyano-cyclopropyl)-amide]
0.675 | N#CC1(NC(=O)[C@@H]2C[C@@H](S(=O)(=O)c3ccc(OCC(F)(F)F)cc3Cl)C[C@H]2C(=O)N2CCC(F)(F)C2)CC1 [Example 189, (1R,2R,4R)-4-[2-Chloro-4-(2,2,2-trifluoro-ethoxy)-benzenesulfonyl]-2-(3,3-difluoro-pyrrolidine-1-carbonyl)-cyclopentanecarboxylic acid (1-cyano-cyclopropyl)-amide]
0.84 | C[C@H](Oc1ccc(S(=O)(=O)[C@@H]2C[C@@H](C(=O)NC3(C#N)CC3)[C@H](C(=O)N3CCC(F)(F)C3)C2)c(Cl)c1)C(F)(F)F [Example 190, (1R,2R,4R)-4-[2-Chloro-4-((S)-2,2,2-trifluoro-1-methyl-ethoxy)-benzenesulfonyl]-2-(3,3-difluoro-pyrrolidine-1-carbonyl)-cyclopentanecarboxylic acid (1-cyano-cyclopropyl)-amide]
0.575 | N#CC1(NC(=O)[C@@H]2C[C@@H](S(=O)(=O)c3ccc(N4CCN(C5CC5)CC4)cc3Cl)C[C@H]2C(=O)N2CCC(F)(F)C2)CC1 [Example 191, (1R,2R,4R)-4-[2-Chloro-4-(4-cyclopropyl-piperazin-1-yl)-benzenesulfonyl]-2-(3,3-difluoro-pyrrolidine-1-carbonyl)-cyclopentanecarboxylic acid (1-cyano-cyclopropyl)-amide]
0.155 | CC(C)(C)N1CCN(c2ccc(S(=O)(=O)[C@@H]3C[C@@H](C(=O)NC4(C#N)CC4)[C@H](C(=O)N4CCC(F)(F)C4)C3)c(Cl)c2)CC1 [Example 192, (1R,2R,4R)-4-[4-(4-tert-Butyl-piperazin-1-yl)-2-chloro-benzenesulfonyl]-2-(3,3-difluoro-pyrrolidine-1-carbonyl)-cyclopentanecarboxylic acid (1-cyano-cyclopropyl)-amide]
0.215 | Cn1nccc1-c1ccc(S(=O)(=O)[C@@H]2C[C@@H](C(=O)NC3(C#N)CC3)[C@H](C(=O)N3CCC(F)(F)C3)C2)c(Cl)c1 [Example 196, (1R,2R,4R)-4-[2-Chloro-4-(2-methyl-2H-pyrazol-3-yl)-benzenesulfonyl]-2-(3,3-difluoro-pyrrolidine-1-carbonyl)-cyclopentanecarboxylic acid (1-cyano-cyclopropyl)-amide]
0.14 | Cn1cc(-c2ccc(S(=O)(=O)[C@@H]3C[C@@H](C(=O)NC4(C#N)CC4)[C@H](C(=O)N4CCC(F)(F)C4)C3)c(Cl)c2)cn1 [Example 197, (1R,2R,4R)-4-[2-Chloro-4-(1-methyl-1H-pyrazol-4-yl)-benzenesulfonyl]-2-(3,3-difluoro-pyrrolidine-1-carbonyl)-cyclopentanecarboxylic acid (1-cyano-cyclopropyl)-amide]
0.135 | Cc1cc(-c2ccc(S(=O)(=O)[C@@H]3C[C@@H](C(=O)NC4(C#N)CC4)[C@H](C(=O)N4CCC(F)(F)C4)C3)c(Cl)c2)ccn1 [Example 198, (1R,2R,4R)-4-[2-Chloro-4-(2-methyl-pyridin-4-yl)-benzenesulfonyl]-2-(3,3-difluoro-pyrrolidine-1-carbonyl)-cyclopentanecarboxylic acid (1-cyano-cyclopropyl)-amide]
0.135 | N#CC1(NC(=O)[C@@H]2C[C@@H](S(=O)(=O)c3ccc(-c4ccnc(Cl)c4)cc3Cl)C[C@H]2C(=O)N2CCC(F)(F)C2)CC1 [Example 199, (1R,2R,4R)-4-[2-Chloro-4-(2-chloro-pyridin-4-yl)-benzenesulfonyl]-2-(3,3-difluoro-pyrrolidine-1-carbonyl)-cyclopentanecarboxylic acid (1-cyano-cyclopropyl)-amide]
0.445 | Cc1ccc(S(=O)(=O)[C@@H]2C[C@@H](C(=O)NC3(C#N)CC3)[C@H](C(=O)N3CCC(F)(F)C3)C2)c(Cl)c1 [Example 200, (1R,2R,4R)-4-(2-Chloro-4-methyl-benzenesulfonyl)-2-(3,3-difluoro-pyrrolidine-1-carbonyl)-cyclopentanecarboxylic acid (1-cyano-cyclopropyl)-amide]
0.34 | Cn1nccc1-c1cccc(S(=O)(=O)[C@@H]2C[C@@H](C(=O)NC3(C#N)CC3)[C@H](C(=O)N3CCC(F)(F)C3)C2)c1 [Example 201, (1R,2R,4R)-2-(3,3-Difluoro-pyrrolidine-1-carbonyl)-4-[3-(2-methyl-2H-pyrazol-3-yl)-benzenesulfonyl]-cyclopentanecarboxylic acid (1-cyano-cyclopropyl)-amide]
